Assay results published in patent publication US11161839B2, “2-quinolone derived inhibitors of BCL6” (Cancer Research Technology Limited, priority 2017, dated 2021).
Read-outs that look alike come from different tables or passages of the source.

Legend:
[1] = biological target: human BCL6 BTB domain (Trx-6xHis-BCL6) (Homo sapiens (Human), UniProt P41182); experiment: HTRF in vitro assay (BCL6 BTB domain / BCOR-AF633 peptide); format: binding; settings: for IC50: read-out: HTRF pIC50 (converted)
[2] = biological target: BCL6-NCOR2(SMRT) corepressor protein-protein interaction (Homo sapiens (Human), UniProt P41182); experiment: NanoBRET cell assay in transfected HEK293T cells; format: cell-based; settings: HEK293T cells, 6 hr; for IC50: read-out: NanoBRET cell pIC50 (converted)
[3] = further generated data (Table 1b), 1 nM Trx-6xHis-BCL6, 0.5 nM anti-6xHis-Terbium cryptate
[4] = further generated data (Table 2b)
[5] = initially generated data (Table 1a), 10 nM Trx-6xHis-BCL6, 1 nM anti-6xHis-Terbium cryptate

Row | SMILES | HTRF pIC50 [1, 3] | IC50 [2, 4] | IC50 [1, 3] | HTRF pIC50 [1, 5] | NanoBRET cell pIC50 [2, 4] | IC50 ([2]; initially generated data (Table 2a))
1 | COc1ncc(Cl)c(Nc2ccc3c(c2)c(N[C@H](C)C2CC2)cc(=O)n3C)n1 [Example 11e] | 6.20 | 3470 nM | – | – | – | –
2 | CC(Nc1cc(=O)n(C)c2ccc(Nc3ccnc(Cl)c3C#N)cc12)c1ccccn1 (centres unmarked) [Example 11d, 2-chloro-4-((1-methyl-2-oxo-4-((1-(pyridin-2-yl)ethyl)amino)-1,2-dihydroquinolin-6-yl)amino)nicotinonitrile: formic acid (1:1)] | 6.34 | 4370 nM | – | – | – | –
3 | COCC(C)(C)Nc1cc(=O)n(C)c2ccc(Nc3nc(-n4nc(C)cc4C)ncc3Cl)cc12 [Example 14e, 6-((5-chloro-2-(3,5-dimethyl-1H-pyrazol-1-yl)pyrimidin-4-yl)amino)-4-((1-methoxy-2-methylpropan-2-yl)amino)-1-methylquinolin-2(1H)-one] | 6.54 | 10000 nM | – | – | – | –
4 | COCC(C)(C)Nc1cc(=O)n(C)c2ccc(Nc3nc(N4CCC(C(=O)N(C)C)CC4)ncc3Cl)cc12 [Example 16d, 1-(5-chloro-4-((4-((1-methoxy-2-methylpropan-2-yl)amino)-1-methyl-2-oxo-1,2-dihydroquinolin-6-yl)amino)pyrimidin-2-yl)-N,N-dimethylpiperidine-4-carboxamide] | 6.25 | 9120 nM | – | – | – | –
5 | CC(Nc1nc(=O)n(C)c2ccc(Nc3ccnc(Cl)c3C#N)cc12)c1ncccn1 (centres unmarked) [Example 10h] | 7.10 | 8910 nM | – | – | – | –
6 | CC(Nc1nc(=O)n(C)c2ccc(Nc3nc(N4C[C@@H](C)O[C@@H](C)C4)ncc3Cl)cc12)c1ncccn1 (stereo partly drawn) [Example 26e, 6-[[5-chloro-2-[(2R,6S)-2,6-dimethylmorpholin-4-yl]pyrimidin-4-yl]amino)-1-methyl-4-(1-pyrimidin-2-ylethylamino)quinazolin-2-one] | 7.03 | 2880 nM | – | – | – | –
7 | Cn1c(=O)cc(NC(C)(C)c2ncc(C3CC3)cn2)c2cc(Nc3cc(C(=O)N4CCC4)nc(Cl)c3C#N)ccc21 [Example 8b, 6-(azetidine-1-carbonyl)-2-chloro-4-((4-((2-(5-cyclopropylpyrimidin-2-yl)propan-2-yl)amino)-1-methyl-2-oxo-1,2-dihydroquinolin-6-yl)amino)nicotinonitrile] | 7.86 | 741 nM | – | – | – | –
8 | CC(Nc1cc(=O)n(CC2CCC2)c2ccc(Nc3ccnc(Cl)c3C#N)cc12)c1ncccn1 (centres unmarked) [Example 11i, 2-chloro-4((1-(cyclobutylmethyl)-2-oxo-4-((1-(pyrimidin-2-yl)ethyl)amino)-1,2-dihydroquinolin-6-yl)amino)nicotinonitrile] | 6.64 | 2090 nM | – | – | – | –
9 | CC(Nc1cc(=O)n(C)c2ccc(Nc3ccnc(Cl)c3C#N)cc12)c1ncc(Br)cn1 (centres unmarked) [Example 10j, 4-((4-((1-(5-bromopyrimidin-2-yl)ethyl)amino)-1-methyl-2-oxo-1,2-dihydroquinolin-6-yl)amino)-2-chloronicotinonitrile] | 6.92 | 1230 nM | – | – | – | –
10 | CC(Nc1cc(=O)n(C)c2ccc(Nc3ccnc(Cl)c3Cl)cc12)c1ncccn1 (centres unmarked) [Example 6a, 6-[(2,3-Dichloro-4-pyridyl)amino]-1-methyl-4-(1-pyrimidin-2-ylethylamino)quinolin-2-one] | 6.56 | 2820 nM | – | 6.36 | – | –
11 | Cn1c(=O)cc(NC(C)(C)c2ncc(C3CC3)cn2)c2cc(Nc3ccnc(Cl)c3Cl)ccc21 [Example 6j, 4-((2-(5-cyclopropylpyrimidin-2-yl)propan-2-yl)amino)-6-((2,3-dichloropyridin-4-yl)amino)-1-methylquinolin-2(1H)-one] | 6.84 | 1200 nM | – | – | – | –
12 | C[C@@H](Nc1nc(=O)n(C)c2ccc(Nc3ccnc(Cl)c3C#N)cc12)C1CC1 [Example 10m, (R)-2-chloro-4-((4-((1-cyclopropylethyl)amino)-1-methyl-2-oxo-1,2-dihydroquinazolin-6-yl)amino)nicotinonitrile] | 6.66 | 2750 nM | – | – | – | –
13 | CC(Nc1cc(=O)n(C)c2ccc(Nc3ccnc(Cl)c3C#N)cc12)c1ncc(N2C[C@H](C)C[C@H](C)C2)cn1 (stereo partly drawn) [Example 10k, 2-chloro-4-((4-((1-(5-((3R,5S)-3,5-dimethylpiperidin-1-yl)pyrimidin-2-yl)ethyl)amino)-1-methyl-2-oxo-1,2-dihydroquinolin-6-yl)amino)nicotinonitrile] | 6.82 | 1510 nM | – | – | – | –
14 | CC(=O)N(C)c1cc(Nc2ccc3c(c2)c(NC(C)c2ncccn2)cc(=O)n3C)c(Cl)cn1 (centres unmarked) [Example 21, N-(5-Chloro-4-((1-methyl-2-oxo-4-((1-(pyrimidin-2-yl)ethyl)amino)-1,2-dihydroquinolin-6-yl)amino)pyridin-2-yl)-N-methylacetamide] | 6.33 | 6760 nM | – | – | – | –
15 | Cc1cc(Nc2ccc3c(c2)c(NC(C)c2ncccn2)cc(=O)n3C)c(C#N)c(Cl)n1 (centres unmarked) [Example 1w, 2-chloro-6-methyl-4-[[1-methyl-2-oxo-4-(1-pyrimidin-2-ylethylamino)-6-quinolyl]amino]pyridine-3-carbonitrile] | 6.90 | 1580 nM | – | 6.29 | – | –
16 | Cn1c(=O)cc(NC2(c3ncccn3)CC2)c2cc(Nc3ccnc(Cl)c3C#N)ccc21 [Example 10u, 2-chloro-4-((1-methyl-2-oxo-4-((1-(pyrimidin-2-yl)cyclopropyl)amino)-1,2-dihydroquinolin-6-yl)amino)nicotinonitrile] | 6.19 | 8710 nM | – | – | – | –
17 | CC(Nc1cc(=O)n(CC2CCOCC2)c2ccc(Nc3ccnc(Cl)c3C#N)cc12)c1ncccn1 (centres unmarked) [Example 1d, 2-chloro-4-[[2-oxo-4-(1-pyrimidin-2-ylethylamino)-1-(tetrahydropyran-4-ylmethyl)-6-quinolyl]amino]pyridine-3-carbonitrile] | 6.58 | – | – | 6.58 | 5.45 | 3550 nM
18 | CC(Nc1cc(=O)n(C)c2ccc(Nc3cc(C(=O)N4CC(C(F)(F)F)C4)nc(Cl)c3C#N)cc12)c1ncc(C2CC2)cn1 (centres unmarked) [Example 8f, 2-chloro-4-((4-((1-(5-cyclopropylpyrimidin-2-yl)ethyl)amino)-1-methyl-2-oxo-1,2-dihydroquinolin-6-yl)amino)-6-(3-(trifluoromethyl)azetidine-1-carbonyl)nicotinonitrile] | 6.99 | 5250 nM | – | – | – | –
19 | C[C@@H]1CN(c2ncc(Cl)c(Nc3ccc4c(c3)c(NC(C)(C)c3ncccn3)cc(=O)n4C)n2)C[C@H](C)O1 [Example 12f, 6-((5-chloro-2-((2S,6R)-2,6-dimethylmorpholino)pyrimidin-4-yl)amino)-1-methyl-4-((2-(pyrimidin-2-yl)propan-2-yl)amino)quinolin-2(1H)-one] | 6.57 | 2450 nM | – | – | – | –
20 | CC(Nc1nc(=O)n(C)c2ccc(Nc3nc(N4CCC(F)(F)CC4)ncc3Cl)cc12)c1ncccn1 (centres unmarked) [Example 12a, 6-((5-Chloro-2-(4,4-difluoropiperidin-1-yl)pyrimidin-4-yl)amino)-1-methyl-4-((1-(pyrimidin-2-yl)ethyl)amino)quinazolin-2(1H)-one] | – | 2340 nM | 191 nM | – | – | –
21 | CC(Nc1cc(=O)n(CCN2C(=O)CCC2=O)c2ccc(Nc3ccnc(Cl)c3C#N)cc12)c1ncccn1 (centres unmarked) [Example 1c, 2-chloro-4-[[1-[2-(2,5-dioxopyrrolidin-1-yl)ethyl]-2-oxo-4-(1-pyrimidin-2-ylethylamino)-6-quinolyl]amino]pyridine-3-carbonitrile] | 6.73 | 22400 nM | – | 6.63 | – | –

The next lines start with the values.

Row | HTRF pIC50 [1, 3] | IC50 [2, 4] | IC50 [1, 3] | HTRF pIC50 [1, 5] | NanoBRET cell pIC50 [2, 4] | IC50 ([2]; initially generated data (Table 2a)) | SMILES
22 | – | 3800 nM | 501 nM | – | – | – | CC(Nc1cc(=O)n(C)c2ccc(Nc3nc(N4CCC(F)(F)C(CO)C4)ncc3Cl)cc12)c1ncccn1 (single isomer, unassigned) [Example 26d]
23 | 6.17 | 15100 nM | – | – | – | – | CC(Nc1cc(=O)n(C)c2ccc(Nc3ccnc(C#N)c3Cl)cc12)c1ncccn1 (centres unmarked) [Example 19h, 3-chloro-4-((1-methyl-2-oxo-4-((1-(pyrimidin-2-yl)ethyl)amino)-1,2-dihydroquinolin-6-yl)amino)picolinonitrile]
24 | – | 3720 nM | 339 nM | – | – | – | CC(Nc1cc(=O)n(C)c2ccc(Nc3nc(N4CCC(C(=O)N(C)C)CC4)ncc3Cl)cc12)c1ncccn1 (centres unmarked) [Example 17c, 1-(5-chloro-4-((-methyl-2-oxo-4-((1-(pyrimidin-2yl)ethyl)amino)-1,2-dihydroquinolin-6-yl)amino)pyrimidin-2-yl)-N,N-dimethylpiperidine-4-carboxamide]
25 | 6.32 | 3240 nM | – | – | – | – | CC(Nc1cc(=O)n(C)c2ccc(Nc3nc(NCc4cccnc4)ncc3Cl)cc12)c1ncccn1 (centres unmarked) [Example 17f, 6-((5-chloro-2-((pyridin-3-ylmethyl)amino)pyrimidin-4-yl)amino)-1-methyl-4((1-(pyrimidin-2-yl)ethyl)amino)quinolin-2(1H)-one:formic acid (1:1)]
26 | 7.55 | 2750 nM | – | – | – | – | CN(C)C(=O)c1cc(Nc2ccc3c(c2)c(NC(C)(C)c2ncccn2)cc(=O)n3C)c(C#N)c(Cl)n1 [Example 19a, 6-chloro-5-cyano-N,N-dimethyl-4-((1-methyl-2-oxo-4-((2-(pyrimidin-2-yl)propan-2-yl)amino)-1,2-dihydroquinolin-6-yl)amino)picolinamide]
27 | 7.26 | 1620 nM | – | – | – | – | CC(Nc1cc(=O)n(C)c2ccc(Nc3ccnc(Cl)c3C#N)cc12)c1ncc(C2CCC2)cn1 (centres unmarked) [Example 24f, 2-chloro-4-((4-((1-(5-cyclobutylpyrimidin-2-yl)ethyl)amino)-1-methyl-2-oxo-1,2-dihydroquinolin-6-yl)amino)nicotinonitrile]
